Reference: ChEMBL document CHEMBL4354794, “Potential Anticancer Agents Characterized from Selected Tropical Plants” (J Nat Prod, 2019)
One block for each compound: values may come before it.

Tests used:
[1] = Antiproliferative activity against human KKU100 cells assessed as reduction in cell viability after 72 hrs by SRB assay; type: functional, cell-based; conditions: KKU100, 72 h
HL-60 = experiment: Antiproliferative activity against human HL60 cells assessed as reduction in cell viability after 3 days by trypan blue dye based hemocytometer counting method; type: functional; conditions: HL-60, 72 h
HT-29 = experiment: Antiproliferative activity against human HT-29 cells assessed as reduction in cell viability; type: functional, cell-based
SNB-19 = experiment: Antiproliferative activity against human SNB19 cells; type: functional, cell-based
NCI-H1650 = experiment: Antiproliferative activity against human NCI-H1650 cells assessed as reduction in cell viability after 72 hrs by CellTiter-Glo assay; type: functional, cell-based; conditions: NCI-H1650, 72 h
HepG2 = experiment: Antiproliferative activity against human HepG2 assessed as reduction in cell viability incubated for 48 hrs by AlamarBlue assay; type: functional, cell-based; conditions: HepG2, 48 h
MCF7 = experiment: Antiproliferative activity against human MCF7 assessed as reduction in cell viability incubated for 48 hrs by AlamarBlue assay; type: functional, cell-based; conditions: MCF7, 48 h
A549 [2] = experiment: Antiproliferative activity against human A549 cells assessed as reduction in cell viability after 72 hrs by MTT assay; type: functional, cell-based; conditions: A549, 72 h
Trypsin = Trypsin (Homo sapiens, UniProt P07477+P07478+P35030); experiment: Inhibition of trypsin (unknown origin) using Z-FR-MCA as substrate by spectrofluorimetric method; type: protein assay
Cruzipain = Cruzipain (Trypanosoma cruzi, UniProt P25779); experiment: Inhibition of Trypanosoma cruzi cruzain (unknown origin) using Z-FR-MCA as substrate by spectrofluorimetric method
Papain = target: T1, Papain (Carica papaya, UniProt P00784); experiment: Inhibition of Papaya papain using Z-FR-MCA as substrate by spectrofluorimetric method
T1 sequence (P00784 whole entry): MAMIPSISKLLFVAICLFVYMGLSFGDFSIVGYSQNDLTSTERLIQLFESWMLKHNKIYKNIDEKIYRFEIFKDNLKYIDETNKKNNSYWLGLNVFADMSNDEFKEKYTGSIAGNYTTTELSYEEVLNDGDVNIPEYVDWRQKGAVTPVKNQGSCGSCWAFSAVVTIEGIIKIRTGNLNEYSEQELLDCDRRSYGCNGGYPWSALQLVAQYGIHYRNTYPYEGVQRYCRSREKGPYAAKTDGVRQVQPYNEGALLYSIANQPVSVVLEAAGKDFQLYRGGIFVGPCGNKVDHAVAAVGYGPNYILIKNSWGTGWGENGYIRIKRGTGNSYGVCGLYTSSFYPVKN

P388 = experiment: Antiproliferative activity against mouse P388 cells assessed as reduction in cell viability; type: functional, cell-based
A549 [3] = experiment: Antiproliferative activity against human A549 cells assessed as reduction in cell viability after 48 hrs by MTT assay; type: functional, cell-based; conditions: A549, 48 h
BGC-823 = experiment: Antiproliferative activity against human BGC823 cells assessed as reduction in cell viability after 48 hrs by MTT assay; type: functional, cell-based; conditions: BGC-823, 48 h

Chain of Cruzipain (P25779 whole entry): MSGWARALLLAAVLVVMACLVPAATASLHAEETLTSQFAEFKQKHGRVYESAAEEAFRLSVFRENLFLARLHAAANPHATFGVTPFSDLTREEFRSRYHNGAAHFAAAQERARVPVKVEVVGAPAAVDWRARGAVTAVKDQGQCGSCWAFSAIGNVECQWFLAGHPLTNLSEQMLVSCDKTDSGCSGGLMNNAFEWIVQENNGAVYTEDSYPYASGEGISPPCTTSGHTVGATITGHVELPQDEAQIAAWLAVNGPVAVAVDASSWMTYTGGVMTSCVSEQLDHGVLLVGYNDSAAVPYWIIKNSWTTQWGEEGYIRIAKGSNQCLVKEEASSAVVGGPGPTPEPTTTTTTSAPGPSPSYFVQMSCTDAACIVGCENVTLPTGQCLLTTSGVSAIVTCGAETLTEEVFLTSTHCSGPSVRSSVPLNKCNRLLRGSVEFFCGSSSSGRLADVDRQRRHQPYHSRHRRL

IC50 (HL-60): 0.83 µM
SMILES: CO[C@@H]1[C@@H]2C[C@H]3C(C)(C)O[C@@](C/C=C(/C)C(=O)O)(C2=O)[C@]32Oc3c(CC=C(C)C)c4c(c(O)c3C(=O)[C@H]12)C=C[C@@](C)(CCC=C(C)C)O4

IC50 (A549 [2]): 0.01 µM
SMILES: COC[C@H]1O[C@@H](Oc2c3c(c(-c4ccc5c(c4)OCO5)c4cc(OC)c(OC)cc24)C(=O)OC3)[C@H](OC)[C@@H](OC)[C@H]1OC

IC50 (Trypsin): 21.1 µM | IC50 (Cruzipain): 537 µM | IC50 (Papain): 0.6 µM
SMILES: CC(=O)Oc1ccc(C2Oc3cc(OC(C)=O)cc(O)c3C(=O)C2c2c(OC(C)=O)cc(O)c3c(=O)cc(-c4ccc(OC(C)=O)c(OC(C)=O)c4)oc23)cc1 (racemic)

IC50 (HepG2): 0.24 µM | IC50 (MCF7): 5.2 µM
SMILES: C/C1=C\CC[C@@]2(C)O[C@H]2[C@H]2OC(=O)[C@@H](CNc3ccn(C4OC(CO)[C@H](O)[C@@H]4O)c(=O)n3)[C@@H]2CC1 (some centres undefined)

IC50 (P388): 0.14 µM
SMILES: CC(C)=CCc1c(-c2cc(O)c(O)cc2O)oc2c3c(cc(O)c2c1=O)OC(C)(C)C=C3 [ARTONIN E]

IC50 (A549 [2]): 0.05 µM
SMILES: COC[C@H]1O[C@@H](Oc2c3c(c(-c4ccc5c(c4)OCO5)c4cc(OC)c(OC)cc24)C(=O)OC3)[C@H](OC)[C@@H](OC)[C@@H]1OC

IC50 (Trypsin): 3.8 µM | IC50 (Cruzipain): 9.6 µM | IC50 (Papain): 10.5 µM
SMILES: O=C1c2c(O)cc(O)cc2OC(c2ccc(O)cc2)C1c1c(O)cc(O)c2c(=O)cc(-c3ccc(O)c(O)c3)oc12 (racemic)

IC50 (Trypsin): 19.8 µM | IC50 (Cruzipain): 8.1 µM | IC50 (Papain): 15.7 µM
SMILES: CCCC(=O)Oc1ccc(C2Oc3cc(OC(=O)CCC)cc(O)c3C(=O)C2c2c(OC(=O)CCC)cc(O)c3c(=O)cc(-c4ccc(OC(=O)CCC)c(OC(=O)CCC)c4)oc23)cc1 (racemic)

IC50 (Trypsin): 1.6 µM | IC50 (Cruzipain): 235 µM | IC50 (Papain): 15.4 µM
SMILES: COc1ccc(C2Oc3cc(OC)cc(O)c3C(=O)C2c2c(OC)cc(O)c3c(=O)cc(-c4ccc(OC)c(OC)c4)oc23)cc1 (racemic)

IC50 (A549 [3]): 2.7 µM | IC50 (BGC-823): 0.31 µM
SMILES: COCOc1cc(O)c2c(c1)OC13C(=CC4CC1C(C)(C)OC3(CC1OC1(C)C)C4=O)C2=O (centres undefined)

Second part, the compound before the results:

SMILES: CC(C)=CCc1c(O)cc(O)c2c1O[C@]13C(=C[C@H]4C[C@@H]1C(C)(C)O[C@@]3(CC=C(C)C)C4=O)C2=O
IC50 [1]: 3.5 µM

SMILES: C=C1C(=O)O[C@@H]2/C=C(/C)C3=CC(=O)[C@@](C)(C[C@H](OC(=O)/C(C)=C\C)[C@@H]12)O3
IC50 (HT-29): 1.4 µM | IC50 (SNB-19): 13.8 µM

SMILES: CC(C)=CCC[C@@]1(C)C=Cc2c(O)c3c(c(C/C=C(\C)CO)c2O1)O[C@]12C(=C[C@H]4C[C@@H]1C(C)(C)O[C@@]2(C/C=C(/C)C(=O)O)C4=O)C3=O
IC50 (NCI-H1650): 0.62 µM

SMILES: C=C(C)[C@@]1(O)O[C@H]2C[C@@]3(C)OC(=CC3=O)/C(C)=C\[C@H]3OC(=O)[C@@]1(C)[C@@H]23
IC50 (HT-29): > 10 µM | IC50 (SNB-19): 100 µM

SMILES: CC(C)=CCC/C(C)=C/Cc1c(O)c(CC=C(C)C)c2c(c1O)C(=O)C1=C[C@@H]3C[C@H]4C(C)(C)O[C@@](C/C=C(\C)C(=O)O)(C3=O)[C@@]14O2
IC50 (NCI-H1650): 1.4 µM

SMILES: C/C1=C\CC[C@@]2(C)O[C@H]2[C@H]2OC(=O)[C@@H](CNC(Cc3ccc(N(CCCl)CCCl)cc3)C(=O)O)[C@@H]2CC1 (some centres undefined)
IC50 (HepG2): 0.26 µM | IC50 (MCF7): 1.8 µM

SMILES: CC(C)=CCC/C(C)=C/Cc1c(O)c(CC=C(C)C)c2c(c1O)C(=O)C1=C[C@@H]3C[C@H]4C(C)(C)O[C@@](C/C=C(\C)C=O)(C3=O)[C@@]14O2
IC50 (NCI-H1650): 0.97 µM

SMILES: CC(C)=CCC/C(C)=C/Cc1c(O)c(CC=C(C)C)c2c(c1O)C(=O)C1=C[C@@H]3C[C@H]4C(C)(C)O[C@@](CC=C(C)C)(C3=O)[C@@]14O2
IC50 (NCI-H1650): 1.1 µM

SMILES: C=C1C(=O)O[C@@H]2C3O[C@]3(C)CC/C=C(\C)CC[C@@H]12 (some centres undefined)
IC50 (HepG2): > 10 µM

SMILES: CC(C)=CCc1c2c(c(O)c3c1O[C@]14C(=C[C@H]5C[C@@H]1C(C)(C)O[C@@]4(C/C=C(\C)C=O)C5=O)C3=O)C=CC(C)(C)O2
IC50 [1]: 3.3 µM

SMILES: CC(C)=CCC[C@@]1(C)C=Cc2c(O)c3c(c(CCC(C)(C)O)c2O1)O[C@]12C(=C[C@H]4C[C@@H]1C(C)(C)O[C@@]2(C/C=C(/C)C(=O)O)C4=O)C3=O
IC50 (NCI-H1650): 0.95 µM
